Test results reported in patent publication US10925872B2, “Methods of treating cochlear synaptopathy” (PIPELINE THERAPEUTICS, INC., priority 2016, dated 2021).

Experiments:
DCC α-fragment = DCC α-fragment Western blot, mouse ex vivo embryonic spinal cord; assay type: cell-based, CD-1 mice; details: embryonic day 15 spinal cord segments, 1 μM, 24 h, normalized to actin
Description: Previous reports have shown that DCC (deleted in colorectal cancer) is a γ-secretase substrate. DCC is the receptor for the guidance molecule, netrin, and its activation results in neuronal axon outgrowth, axon turning and synapse formation. Embryonic spinal cords of presenilin knockout mice treated display persistent expression of the DCC α-fragment; these fragments can enhance netrin-DCC mediated events, including axon outgrowth in cultured motor neurons (Taniguchi et al., 2003, J. Biol. Chem., 278:30425-30428, and Bai et al., 2011, Cell, 144(1): 106-18). The following studies were performed using GSM, “RO”, as well as the GSI, Compound I. RO has the structure:
Spinal cords from embryonic day 15 CD-1 mice were collected and cut into 1-2 mm segments and transferred to serum-free growth media (DMEM-F12, N2 and B27 serum supplements, penicillin/streptomycin) with 1 μM RO or 1 μM Compound I. Segments were cultured for 24 h (37° C., 5% CO2) then processed for Western blot. Membranes were probed with a DCC antibody recognizing the intracellular domain and bands were normalized to actin.

inner hair cell synapses = test: Mouse noise-induced cochlear synaptopathy, local GSI (synapse counts, ABR wave I); assay type: in vivo, CBA/J mice
Description: Two separate experiments were conducted using this protocol: in Experiment 1 (FIG. 7A) compound I treatment was compared to NT3, in Experiment 2 (FIG. 7B, 7C and FIG. 8) we evaluated two dose levels of compound I. For both experiments female CBA/J mice 6 weeks old (The Jackson Laboratory, Bar Harbor, Me.) were exposed, awake and unrestrained, to filtered octave band noise (8-16 kHz) for 2 hours at 98 dB SPL in a reverberant sound-exposure box. Mice were placed in a custom designed wire cage sitting atop high density 4-inch foam with the wire floor 1-inch above the foam. The noise waveform was generated and filtered with a TDT RZ6 pre-amplifier (Tucker Davis Technologies, Alachua, Fla.), amplified by a Crown XLS1000 power amplifier, and delivered by JBL 2426H Compression Driver coupled to a JBL 2730A horn. Sound levels were verified in the center of the cage using a ¼-inch condenser microphone (PCB Piezotronics, Depew, N.Y.) before each exposure. ABR was collected 1 and 14 days post-noise exposure to ensure a temporary threshold shift with no permanent threshold shift. Seventeen days after noise, mice were dosed bilaterally with crystalline Compound I, (2% in PF10*) or NT3 (2 μL of 150 ng/μL) (Experiment 1); crystalline Compound I (2% and 0.2% in PF10) (Experiment 2); and ABR was collected 14 days post-dose. Vehicle control animals received bilateral injections of PF10. Age matched naïve control animals were also used.
ABR Wave I analysis: The auditory brain-stem response (ABR) waveform comprises a set of waves (labeled I-V). Mice were anesthetized with ketamine and xylazine. ABR waveforms were collected using Tucker-Davis Technologies RZ6 Auditory Processor. The stimuli used were 5 ms tone (2 ms cos 2 rise-fall) at frequencies from 4, 8, 16, 24, and 32 kHz delivered in alternating polarity at 21/s. […] Wave I peak amplitudes were determined by extracting the raw waveform voltage averages and determining the window or latency at which the peak of wave I appears. […]

[1] = both 0.2% and 2% dosages in PF10, bilateral, 17 days after noise, 14 days post-dose

C[C@H](OC(=O)NCC(F)(F)C(F)(F)F)C(=O)N[C@@H]1C(=O)Nc2ccccc2-c2ccccc21 [Compound I, (2,2,3,3,3-pentafluoropropyl)-carbamic acid (S)-1-((S)-6-oxo-6,7-dihydro-5H-dibenzo[b,d]azepin-7-ylcarbamoyl) ethyl ester]
DCC α-fragment level compared to the vehicle group (DCC α-fragment): Increase in α-fragment
synapse recovery in the mid 1 region (16-24 kHz) (inner hair cell synapses; [1]): nearly complete synapse recovery
synapse recovery in the mid 2 region (24-32 kHz) (inner hair cell synapses; [1]): nearly complete synapse recovery
ABR wave I amplitudes (inner hair cell synapses; local administration following noise induced synaptopathy): improved wave I amplitudes
